Structures are written as SMILES. Square brackets hold non-standard residues; d marks the D form. Peptide text beside a SMILES is read from it.

This experiment concerns the target Programmed cell death protein 1/Programmed cell death 1 ligand 1 (Homo sapiens) (UniProt Q15116+Q9NZQ7). Nature of the experiment: Inhibition of PD1-Tag2/PD-L1-Tag1 (unknown origin) protein-protein interaction at 20 uM preincubated for 15 mins followed by addition of anti-Tag1-Eu3+ and anti-Tag2-XL665 measured after 3 hrs by HTRF assay relative to control. The experiment is classed as protein-complex assay. The following applies: time 195.0 min.
For the molecule `CC(C)C[C@@H]1NC(=O)[C@H](CCC(=O)O)NC(=O)[C@H]([C@@H](C)O)NC(=O)[C@@H]2CCCN2C(=O)[C@@H](Cc2ccccc2)NC(=O)[C@H](CC(C)C)NC(=O)[C@H](CCCNC(=N)N)NC(=O)C(C(C)C)NC(=O)[C@@H]2CCCN2C(=O)[C@@H](Cc2ccccc2)NC1=O` (some centres not stated), the inhibition was determined as 20.6%.

Regarding `CC(C)C[C@@H]1NC(=O)[C@H](CC(=O)O)NC(=O)[C@H]([C@@H](C)O)NC(=O)[C@@H]2CCCN2C(=O)[C@@H](Cc2ccccc2)NC(=O)[C@H](Cc2cnc[nH]2)NC(=O)[C@H](CCCNC(=N)N)NC(=O)[C@H](C(C)C)NC(=O)[C@@H]2CCCN2C(=O)[C@@H](Cc2ccccc2)NC1=O` (cyclo(DL[dF]PVRH[dF]PT)), the inhibition stood at 7.13%.

On to `CC(C)C[C@@H]1NC(=O)[C@H](CCCNC(=N)N)NC(=O)[C@H](C(C)C)NC(=O)[C@@H]2CCCN2C(=O)[C@@H](Cc2ccccc2)NC(=O)[C@H](CC(C)C)NC(=O)[C@H](CC(=O)O)NC(=O)[C@H](CCC(=O)O)NC(=O)[C@@H]2CCCN2C(=O)[C@@H](Cc2ccccc2)NC1=O`, for which the inhibition was 1.14%.

Regarding `CC(C)C[C@@H]1NC(=O)[C@H](CCCNC(=N)N)NC(=O)[C@H](C(C)C)NC(=O)[C@@H]2CCCN2C(=O)[C@@H](Cc2ccccc2)NC(=O)[C@H](C)NC(=O)[C@H](CCC(=O)O)NC(=O)[C@H](C)NC(=O)[C@@H]2CCCN2C(=O)[C@@H](Cc2ccccc2)NC1=O`, the inhibition was -6.08%.

For `CC(C)C[C@@H]1NC(=O)[C@H](CCCNC(=N)N)NC(=O)[C@H](C(C)C)NC(=O)[C@@H]2CCCN2C(=O)[C@@H](Cc2ccccc2)NC(=O)[C@H](CC(C)C)NC(=O)[C@H](CCCNC(=N)N)NC(=O)[C@H](C)NC(=O)[C@@H]2CCCN2C(=O)[C@@H](Cc2ccccc2)NC1=O` (cyclo(ARL[dF]PVRL[dF]P)), the inhibition turned out to be 22.4%.

As to `CC(C)C[C@@H]1NC(=O)[C@H](CCCNC(=N)N)NC(=O)[C@H](C(C)C)NC(=O)[C@@H]2CCCN2C(=O)[C@@H](Cc2ccccc2)NC(=O)[C@H](CC(C)C)NC(=O)[C@H](CCCNC(=N)N)NC(=O)[C@H](C(C)C)NC(=O)[C@H](C)NC(=O)[C@@H](Cc2ccccc2)NC1=O` (cyclo(L[dF]AVRL[dF]PVR)), the inhibition came to 27.2%.

For the molecule `CC(C)C[C@@H]1NC(=O)[C@H](Cc2ccc(O)cc2)NC(=O)[C@H]([C@@H](C)O)NC(=O)[C@@H]2CCCN2C(=O)[C@@H](Cc2ccccc2)NC(=O)[C@H](CC(C)C)NC(=O)[C@H](CCCNC(=N)N)NC(=O)[C@H](C(C)C)NC(=O)[C@@H]2CCCN2C(=O)[C@@H](Cc2ccccc2)NC1=O` (cyclo(L[dF]PTYL[dF]PVR)), the inhibition stood at 8.25%.

With `CC(C)C[C@@H]1NC(=O)[C@H](CCCNC(=N)N)NC(=O)[C@H](C(C)C)NC(=O)[C@@H]2CCCN2C(=O)[C@@H](Cc2ccccc2)NC(=O)[C@H](CC(C)C)NC(=O)[C@H]([C@@H](C)O)NC(=O)[C@@H]2CCCN2C(=O)[C@H](CC(=O)O)NC(=O)[C@@H](Cc2ccccc2)NC1=O` (cyclo(DPTL[dF]PVRL[dF])), the inhibition was found to be 12.9%.

For the molecule `CC(C)C[C@@H]1NC(=O)[C@H](CC(=O)O)NC(=O)[C@H](C(C)C)NC(=O)[C@@H]2CCCN2C(=O)[C@@H](Cc2ccccc2)NC(=O)[C@H](CC(C)C)NC(=O)[C@H](CCCNC(=N)N)NC(=O)[C@H](CCC(=O)O)NC(=O)[C@@H]2CCCN2C(=O)[C@@H](Cc2ccccc2)NC1=O`, the inhibition is -3.03%.

Turning to `CC(C)C[C@@H]1NC(=O)[C@H](CCCNC(=N)N)NC(=O)[C@H]([C@@H](C)O)NC(=O)[C@@H]2CCCN2C(=O)[C@@H](Cc2ccccc2)NC(=O)[C@H](CC(C)C)NC(=O)[C@H](CC(=O)O)NC(=O)[C@H](C)NC(=O)[C@@H]2CCCN2C(=O)[C@@H](Cc2ccccc2)NC1=O` (cyclo(ADL[dF]PTRL[dF]P)), the inhibition stood at 41.2%.

Turning to `CC(C)C[C@@H]1NC(=O)[C@H](CCCNC(=N)N)NC(=O)[C@H](C(C)C)NC(=O)[C@@H]2CCCN2C(=O)[C@@H](Cc2ccccc2)NC(=O)[C@H](CC(=O)O)NC(=O)[C@H](CC(C)C)NC(=O)[C@H]([C@@H](C)O)NC(=O)[C@@H]2CCCN2C(=O)[C@@H](Cc2ccccc2)NC1=O` (cyclo(D[dF]PVRL[dF]PTL)), the inhibition was -5.92%.

With `CC(NCCCC[C@@H]1NC(=O)[C@@H](Cc2ccccc2)NC(=O)[C@H](CC(C)C)NC(=O)[C@H](CC(=O)O)NC(=O)[C@H]([C@@H](C)O)N(C)C(=O)[C@@H]2CCCN2C(=O)[C@@H](Cc2c[nH]c3ccccc23)NC(=O)[C@H](CC(C)C)NC(=O)[C@H](CCCNC(=N)N)NC(=O)[C@H](C(C)C)NC1=O)=C1C(=O)CC(C)(C)CC1=O`, the inhibition was determined as 32.3%.

In the case of `CC(NCCCC[C@@H]1NC(=O)[C@@H](Cc2ccccc2)NC(=O)[C@H](CC(C)C)NC(=O)[C@H](CC(=O)O)NC(=O)[C@H]([C@@H](C)O)NC(=O)[C@@H]2CCCN2C(=O)[C@@H](Cc2c[nH]c3ccccc23)NC(=O)[C@H](CC(C)C)NC(=O)[C@H](CCCNC(=N)N)NC(=O)[C@H](C(C)C)N(C)C1=O)=C1C(=O)CC(C)(C)CC1=O`, the inhibition came out at 29.1%.

`CC(C)C[C@@H]1NC(=O)[C@H](CO)NC(=O)[C@H]([C@@H](C)O)NC(=O)[C@@H]2CCCN2C(=O)[C@@H](Cc2ccccc2)NC(=O)[C@H](CC(C)C)NC(=O)[C@H](CCCNC(=N)N)NC(=O)[C@H](C(C)C)NC(=O)[C@@H]2CCCN2C(=O)[C@@H](Cc2ccccc2)NC1=O` (cyclo(L[dF]PTSL[dF]PVR)): the inhibition stood at 29.7%.

For the molecule `CC(C)C[C@@H]1NC(=O)[C@H](CCCNC(=N)N)NC(=O)[C@H](C)NC(=O)[C@@H]2CCCN2C(=O)[C@@H](Cc2ccccc2)NC(=O)[C@H](C)NC(=O)[C@H](CCCNC(=N)N)NC(=O)[C@H](C)NC(=O)[C@@H]2CCCN2C(=O)[C@@H](Cc2ccccc2)NC1=O` (cyclo(ARA[dF]PARL[dF]P)), the inhibition was 0.7%.

Consider `CC(C)C[C@@H]1NC(=O)[C@H](CC(=O)O)NC(=O)[C@H](C(C)C)NC(=O)[C@@H]2CCCN2C(=O)[C@@H](Cc2ccccc2)NC(=O)[C@H](CC(C)C)NC(=O)[C@H](CCCNC(=N)N)NC(=O)[C@H](C(C)C)NC(=O)[C@@H]2CCCN2C(=O)[C@@H](CCC(=O)O)NC1=O` (cyclo(DL[dE]PVRL[dF]PV)), for which the inhibition was found to be 22.5%.

In the case of `CC(C)C[C@@H]1NC(=O)[C@H](CCCNC(=N)N)NC(=O)[C@H](C(C)C)NC(=O)[C@@H]2CCCN2C(=O)[C@@H](Cc2ccccc2)NC(=O)[C@H](CC(C)C)NC(=O)[C@H]([C@@H](C)O)NC(=O)[C@H](CC(=O)O)NC(=O)[C@@H]2CCCN2C(=O)[C@@H](Cc2ccccc2)NC1=O` (cyclo(DTL[dF]PVRL[dF]P)), the inhibition is 23.9%.

With `CC(C)C[C@@H]1NC(=O)[C@H](CCCNC(=N)N)NC(=O)[C@H](C(C)C)NC(=O)[C@@H]2CCCN2C(=O)[C@@H](Cc2ccccc2)NC(=O)[C@H](Cc2cnc[nH]2)NC(=O)[C@H](CC(=O)O)NC(=O)[C@H]([C@@H](C)O)NC(=O)[C@@H]2CCCN2C(=O)[C@@H](Cc2ccccc2)NC1=O` (cyclo(DH[dF]PVRL[dF]PT)), the inhibition was -8.61%.

Consider `CC(C)C[C@@H]1NC(=O)[C@H](CCCNC(=N)N)NC(=O)[C@H](C(C)C)NC(=O)[C@@H]2CCCN2C(=O)[C@@H](Cc2ccccc2)NC(=O)[C@H](C)NC(=O)[C@H](CC(=O)O)NC(=O)[C@H]([C@@H](C)O)NC(=O)[C@@H]2CCCN2C(=O)[C@@H](Cc2ccccc2)NC1=O` (cyclo(A[dF]PVRL[dF]PTD)), for which the inhibition was -5.69%.

In the case of `CC(C)C[C@@H]1NC(=O)[C@H](CC(=O)O)NC(=O)[C@H]([C@@H](C)O)NC(=O)[C@@H]2CCCN2C(=O)[C@@H](Cc2ccccc2)NC(=O)[C@H](CC(C)C)NC(=O)[C@H](CCCNC(=N)N)NC(=O)[C@H](C(C)C)NC(=O)[C@@H]2CCCN2C(=O)[C@@H](Cc2c[nH]c3ccccc23)NC1=O` (cyclo(DL[dW]PVRL[dF]PT)), the inhibition turned out to be 35.8%.

In the case of `CC(C)C[C@@H]1NC(=O)[C@H](CCCNC(=N)N)NC(=O)[C@H]([C@@H](C)O)NC(=O)[C@@H]2CCCN2C(=O)[C@@H](Cc2ccccc2)NC(=O)[C@H](CC(C)C)NC(=O)[C@H](CCCNC(=N)N)NC(=O)[C@H](C(C)C)NC(=O)[C@@H]2CCCN2C(=O)[C@@H](Cc2ccccc2)NC1=O` (cyclo(L[dF]PTRL[dF]PVR)), the inhibition was found to be 16.9%.

Take `CC(C)C[C@@H]1NC(=O)[C@H](C)NC(=O)[C@H](C(C)C)NC(=O)[C@@H]2CCCN2C(=O)[C@@H](Cc2ccccc2)NC(=O)[C@H](CC(C)C)NC(=O)[C@H](CCCNC(=N)N)NC(=O)[C@H](C(C)C)NC(=O)[C@@H]2CCCN2C(=O)[C@@H](Cc2ccccc2)NC1=O` (cyclo(AL[dF]PVRL[dF]PV)): the inhibition amounted to 28.8%.

Turning to `CC(C)C[C@@H]1NC(=O)[C@H](CCCNC(=N)N)NC(=O)[C@H](C(C)C)NC(=O)[C@@H]2CCCN2C(=O)[C@@H](Cc2ccccc2)NC(=O)[C@H](C)NC(=O)[C@H](CCCNC(=N)N)NC(=O)[C@H](C(C)C)NC(=O)[C@@H]2CCCN2C(=O)[C@@H](Cc2ccccc2)NC1=O` (cyclo(A[dF]PVRL[dF]PVR)), the inhibition worked out at 21%.

For `CC(C)C[C@@H]1NC(=O)[C@H](CC(N)=O)NC(=O)[C@H]([C@@H](C)O)NC(=O)[C@@H]2CCCN2C(=O)[C@@H](Cc2ccccc2)NC(=O)[C@H](CC(C)C)NC(=O)[C@H](CCCNC(=N)N)NC(=O)[C@H](C(C)C)NC(=O)[C@@H]2CCCN2C(=O)[C@@H](Cc2ccccc2)NC1=O` (cyclo(L[dF]PTNL[dF]PVR)), the inhibition was determined as 17%.

For the molecule `CC(C)C[C@@H]1NC(=O)[C@H](CCCNC(=N)N)NC(=O)[C@H](C(C)C)NC(=O)[C@@H]2CCCN2C(=O)[C@@H](Cc2ccccc2)NC(=O)[C@H](CC(C)C)NC(=O)[C@H]([C@@H](C)O)NC(=O)[C@@H]2CCCN2C(=O)[C@@H](Cc2ccccc2)NC(=O)[C@H](CC(=O)O)NC1=O` (cyclo(D[dF]PTL[dF]PVRL)), the inhibition was -2.13%.

`CC(C)C[C@@H]1NC(=O)[C@H](CCCNC(=N)N)NC(=O)[C@H](C(C)C)NC(=O)[C@@H]2CCCN2C(=O)[C@@H](Cc2ccccc2)NC(=O)[C@H](C)NC(=O)[C@H](C)NC(=O)[C@H](C(C)C)NC(=O)[C@@H]2CCCN2C(=O)[C@@H](Cc2ccccc2)NC1=O` (cyclo(AA[dF]PVRL[dF]PV)): the inhibition turned out to be 16.7%.

`CC(C)C[C@@H]1NC(=O)[C@H](CC(=O)O)NC(=O)[C@H]([C@@H](C)O)NC(=O)[C@@H]2CCCN2C(=O)[C@@H](Cc2c[nH]c3ccccc23)NC(=O)[C@H](CC(C)C)NC(=O)[C@H](CCCNC(=N)N)NC(=O)[C@H](C(C)C)NC(=O)[C@@H]2CCCN2C(=O)[C@@H](Cc2ccccc2)NC1=O` (cyclo(DL[dF]PVRL[dW]PT)): the inhibition was 43.4%.
